What follows are compounds tested against T1, Human TRPC6 (Homo sapiens, UniProt Q9Y210) (assay: Evaluation of TRPC6 channel inhibitory activity (2), HEK293 cells with stably introduced human TRPC6, OAG stimulation, FLIPR tetra (Compound Nos. 1293 to 1405)). Conditions: HEK293 cells with stably introduced human TRPC6, OAG 50 μM/0.5% DMSO, read-out: Inhibitory activity (pIC50 class) (converted).
T1 construct: expressed in transfected cells
T1 sequence (Q9Y210 1-931): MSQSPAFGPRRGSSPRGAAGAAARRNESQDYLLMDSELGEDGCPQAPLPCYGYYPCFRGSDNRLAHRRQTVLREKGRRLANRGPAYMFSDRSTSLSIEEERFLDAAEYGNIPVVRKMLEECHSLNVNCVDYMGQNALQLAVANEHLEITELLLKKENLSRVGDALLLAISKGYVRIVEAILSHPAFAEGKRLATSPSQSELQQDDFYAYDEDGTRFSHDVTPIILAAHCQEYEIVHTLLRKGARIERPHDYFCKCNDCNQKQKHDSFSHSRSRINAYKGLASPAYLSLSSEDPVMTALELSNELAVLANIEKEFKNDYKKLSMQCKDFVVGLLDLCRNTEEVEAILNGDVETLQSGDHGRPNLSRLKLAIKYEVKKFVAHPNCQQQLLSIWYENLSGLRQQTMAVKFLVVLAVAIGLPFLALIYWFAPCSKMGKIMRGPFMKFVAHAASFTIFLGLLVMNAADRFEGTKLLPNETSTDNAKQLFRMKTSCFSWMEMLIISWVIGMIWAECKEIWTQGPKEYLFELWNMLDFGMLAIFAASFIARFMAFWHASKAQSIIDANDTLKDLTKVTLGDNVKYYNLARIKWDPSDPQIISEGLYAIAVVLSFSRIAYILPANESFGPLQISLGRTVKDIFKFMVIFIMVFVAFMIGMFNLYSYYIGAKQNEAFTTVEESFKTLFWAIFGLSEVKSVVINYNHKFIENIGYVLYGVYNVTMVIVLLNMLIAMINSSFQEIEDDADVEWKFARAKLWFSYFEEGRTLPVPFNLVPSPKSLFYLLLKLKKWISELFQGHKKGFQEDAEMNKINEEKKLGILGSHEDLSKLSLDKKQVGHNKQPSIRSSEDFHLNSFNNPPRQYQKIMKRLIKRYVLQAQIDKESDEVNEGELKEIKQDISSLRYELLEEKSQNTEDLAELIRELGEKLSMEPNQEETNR
Type: cell-based
Description: Evaluation of TRPC6 Channel Inhibitory Activity (2) (Compound Nos. 1293 to 1405)
The activity of the TRPC6 inhibitor was measured by stimulating HEK293 cells, in which human TRPC6 was stably introduced, with OAG (1-Oleoyl-2-acetyl-sn-glycerol, Miliipore Sigma, 06754), using the FLIPR tetra system. The cells were proliferated in a humid environment at 37° C. 5% CO2 using a growth medium (DMEM (Dulbecco's Modified Eagle's Medium) high glucose containing 10% fetal bovine serum, 1×PSGlu (penicillin-streptomycin glutamine), 1×NEAA (Non-essential amino acid), sodium pyruvate and 200 μg/mL hyglomycin. For cell subculture, the cells were proliferated to 70-90% confluence, and gently washed twice with PBS (phosphate-buffered saline) free of calcium and magnesium after removing the medium. Then, the cells were incubated at 37° C. for 5 minutes after adding trypsin (3 mL), peeled off by tapping the flask at the base of the hand, 7 mL of growth medium was added to inactivate trypsin, and then the cells were resuspended. Usually, the cells were separated every 2-3 days to become a cell density of ⅕. The day before evaluation, the cells were seeded in a poly-D-lysine (PDL) coated 384-well plate using a multi-channel pipette or multidrop at a cell density of 1.0-1.5×10^4 cells/25 μL/well. After culturing overnight in a PDL-coated 384 Blackwell plate, a fluorescent dye buffer was added first to the cells and the cells were cultured at room temperature for 90-120 minutes. For preparing 10 mL of fluorescent dye buffer, 9 mL of assay buffer, 1 mL of 10×PBX signal enhancer, and 10 μL of calcium indicator were mixed. Cells treated with the compounds of each level 25 minutes before the stimulation with OAG of TRPC6 agonist were incubated. OAG solution was prepared by adding OAG to assay buffer (Ca ringer solution base: 10 mM HEPES (4-(2-hydroxyethyl)-1-piperazine-ethanesulfonic acid), 4 mM MgCl2, 120 mM NaCl, 5 mM KCl, pH=7.2 (25° C.)+0.1% BSA+2 mM CaCl2)) to give an OAG concentration of 0.2 mM/2% DMSO. The final concentration of OAG added to the cells is 50 μM/0.5% DMSO. A volume of 12.5 μL of OAG solution was added, and activation of TRPC6 channel was measured using the FLIPR tetra system assaying the change in intracellular calcium level as an index. The 180 seconds imaging frame was defined as the background signal, and the subtraction of the background signal from the raw data was used as the fluorescence peak signal. Each fluorescence peak signal is standardized using an OAG-induced signal and buffer-induced signal as 100% and 0%, respectively. The inhibition rate obtained by plotting the peak signal after the addition of the compounds of each level was analyzed by a four-parameter logistic regression to quantify the inhibition rate in the logarithm of the inverse of the effective concentration which gives a 50% inhibition rate (pIC50). The intensity was expressed by the above-mentioned symbols (+, ++, +++).

Row | SMILES | IC50 [µM]
1 | Cc1cc(Oc2nc(Cl)ccc2-c2ccc(CCN)cc2)cc(N2CCOCC2)n1 [compound 1329, 2-[4-[6-chloro-2-(2-methyl-6-morpholin-4-ylpyridin-4-yl)oxypyridin-3-yl]phenyl]ethanamine] | > 1
2 | Cn1nc([C@H]2CCCOC2)cc1Oc1cc(C#N)ccc1-c1ccc(CN)cn1 [compound 1330, 4-[5-(aminomethyl)pyridin-2-yl]-3-[2-methyl-5-[(3R)-oxan-3-yl]pyrazol-3-yl]oxybenzonitrile] | < 0.01
3 | Cn1nc(-c2ccccn2)cc1Oc1cc(C#N)cnc1-c1ccc(CCN)cc1 [compound 1331, 6-[4-(2-aminoethyl)phenyl]-5-(2-methyl-5-pyridin-2-ylpyrazol-3-yl)oxypyridine-3-carbonitrile] | > 1
4 | Cn1nc(-c2ccccn2)cc1Oc1cc(Cl)ncc1-c1ccc(CCN)cc1 [compound 1332, 2-[4-[6-chloro-4-(2-methyl-5-pyridin-2-ylpyrazol-3-yl)oxypyridin-3-yl]phenyl]ethanamine] | > 1
5 | Cc1cc(Oc2cc(Cl)ccc2-c2ncc([C@@H](F)CN)cn2)cc(N2CCOCC2)n1 [compound 1336, (2R)-2-[2-[4-chloro-2-(2-methyl-6-morpholin-4-ylpyridin-4-yl)oxyphenyl]pyrimidin-5-yl]-2-fluoroethanamine] | 0.01 to 1
6 | Cc1cc(Oc2cc(Cl)ccc2-c2ncc([C@H](F)CN)cn2)cc(N2CCOCC2)n1 [compound 1337, (2S)-2-[2-[4-chloro-2-(2-methyl-6-morpholin-4-ylpyridin-4-yl)oxyphenyl]pyrimidin-5-yl]-2-fluoroethanamine] | < 0.01
7 | Cn1nc(-c2ccccn2)cc1Oc1cc(Cl)ccc1-c1ccc([C@H](F)CN)cn1 [compound 1338, (2S)-2-[6-[4-chloro-2-(2-methyl-5-pyridin-2-ylpyrazol-3-yl)oxyphenyl]pyridin-3-yl]-2-fluoroethanamine] | < 0.01
8 | Cn1nc(-c2ccccn2)cc1Oc1cc(Cl)ccc1-c1ccc([C@@H](F)CN)cn1 [compound 1339, (2R)-2-[6-[4-chloro-2-(2-methyl-5-pyridin-2-ylpyrazol-3-yl)oxyphenyl]pyridin-3-yl]-2-fluoroethanamine] | < 0.01
9 | Cn1nc([C@H]2CCOC2)cc1Oc1cc(Cl)ccc1-c1ncc([C@H](F)CN)cn1 [compound 1344, (2S)-2-[2-[4-chloro-2-[2-methyl-5-[(3R)-oxolan-3-yl]pyrazol-3-yl]oxyphenyl]pyrimidin-5-yl]-2-fluoroethanamine] | > 1
10 | Cn1nc([C@H]2CCOC2)cc1Oc1cc(Cl)ccc1-c1ccc(CN)cn1 [compound 1345, [6-[4-chloro-2-[2-methyl-5-[(3R)-oxolan-3-yl]pyrazol-3-yl]oxyphenyl]pyridin-3-yl]methanamine] | 0.01 to 1
11 | Cn1nc(C2CC2)cc1Oc1cc(Cl)ccc1-c1ccc(CN)cn1 [compound 1346, [6-[4-chloro-2-(5-cyclopropyl-2-methylpyrazol-3-yl)oxyphenyl]pyridin-3-yl]methanamine] | < 0.01
12 | Cn1nc(C2CC2)cc1Oc1cc(Cl)ccc1-c1ncc([C@H](F)CN)cn1 [compound 1347, (2S)-2-[2-[4-chloro-2-(5-cyclopropyl-2-methylpyrazol-3-yl)oxyphenyl]pyrimidin-5-yl]-2-fluoroethanamine] | 0.01 to 1
13 | Cn1nc(C2CC2)cc1Oc1cc(Cl)ccc1-c1ncc([C@@H](F)CN)cn1 [compound 1348, (2R)-2-[2-[4-chloro-2-(5-cyclopropyl-2-methylpyrazol-3-yl)oxyphenyl]pyrimidin-5-yl]-2-fluoroethanamine] | < 0.01
14 | Cc1cc(Oc2cc(Cl)ccc2-c2ncc([C@H](O)CN)cn2)cc(N2CCOCC2)n1 [compound 1349, (1S)-2-amino-1-[2-[4-chloro-2-(2-methyl-6-morpholin-4-ylpyridin-4-yl)oxyphenyl]pyrimidin-5-yl]ethanol] | 0.01 to 1
15 | Cc1cc(Oc2cc(Cl)ccc2-c2ncc([C@@H](O)CN)cn2)cc(N2CCOCC2)n1 [compound 1350, (1R)-2-amino-1-[2-[4-chloro-2-(2-methyl-6-morpholin-4-ylpyridin-4-yl)oxyphenyl]pyrimidin-5-yl]ethanol] | < 0.01
16 | Cn1nc(-c2ccccn2)cc1Oc1cc(Cl)cnc1-c1ncc(CN)cn1 [compound 1351, [2-[5-chloro-3-(2-methyl-5-pyridin-2-ylpyrazol-3-yl)oxypyridin-2-yl]pyrimidin-5-yl]methanamine] | > 1

Next, values leading:

Row | IC50 [µM] | SMILES
17 | 0.01 to 1 | COc1nc(-c2ccc(C#N)cc2Oc2cc(-c3ccccn3)nn2C)ncc1[C@@H](O)CN [compound 1327, 4-[5-[(1R)-2-amino-1-hydroxyethyl]-4-methoxypyrimidin-2-yl]-3-(2-methyl-5-pyridin-2-ylpyrazol-3-yl)oxybenzonitrile]
18 | 0.01 to 1 | COc1nc(-c2ccc(C#N)cc2Oc2cc(-c3ccccn3)nn2C)ncc1[C@H](O)CN [compound 1328, 4-[5-[(1S)-2-amino-1-hydroxyethyl]-4-methoxypyrimidin-2-yl]-3-(2-methyl-5-pyridin-2-ylpyrazol-3-yl)oxybenzonitrile]
19 | 0.01 to 1 | Cn1nc(-c2ccccn2)cc1Oc1cc(C#N)ccc1-c1nc(Cl)ccc1CN [compound 1333, 4-[3-(aminomethyl)-6-chloropyridin-2-yl]-3-(2-methyl-5-pyridin-2-ylpyrazol-3-yl)oxybenzonitrile]
20 | < 0.01 | Cn1nc(-c2ccccn2)cc1Oc1cc(C#N)ccc1-c1ccc(CN)c(Cl)n1 [compound 1334, 4-[5-(aminomethyl)-6-chloropyridin-2-yl]-3-(2-methyl-5-pyridin-2-ylpyrazol-3-yl)oxybenzonitrile]
21 | < 0.01 | Cn1nc(-c2ccccn2)cc1Oc1cc(F)ccc1-c1ncc([C@H](F)CN)cn1 [compound 1335, (2S)-2-fluoro-2-[2-[4-fluoro-2-(2-methyl-5-pyridin-2-ylpyrazol-3-yl)oxyphenyl]pyrimidin-5-yl]ethanamine]
22 | < 0.01 | Cn1nc(-c2ccccn2)cc1Oc1cc(Cl)ccc1-c1ccc(CN)cn1 [compound 1340, [6-[4-chloro-2-(2-methyl-5-pyridin-2-ylpyrazol-3-yl)oxyphenyl]pyridin-3-yl]methanamine]
23 | 0.01 to 1 | Cn1nc(-c2ccccn2)cc1Oc1cc(F)ccc1-c1ncc(CN)cn1 [compound 1341, [2-[4-fluoro-2-(2-methyl-5-pyridin-2-ylpyrazol-3-yl)oxyphenyl]pyrimidin-5-yl]methanamine]
24 | 0.01 to 1 | Cn1nc(-c2ccccn2)cc1Oc1cc(F)ccc1-c1ncc([C@@H](F)CN)cn1 [compound 1342, (2R)-2-fluoro-2-[2-[4-fluoro-2-(2-methyl-5-pyridin-2-ylpyrazol-3-yl)oxyphenyl]pyrimidin-5-yl]ethanamine]

— US20230167073A1 (Teijin Pharma Limited, priority 2020, published 2023)
